Six compounds from ChEMBL document CHEMBL5465560, “Selectivity Literature for EUbOPEN Chemogenomic Library” (2024) can be followed below.

Experiment [1] has as its target MAP kinase-interacting serine/threonine-protein kinase 2 (Homo sapiens, UniProt Q9HBH9). Description: Selectivity interaction (KinomeScan (DiscoverX)) EUB0000595a MKNK2. Particulars: at 10 µM.
Experiment [2] deals with T1, Mitogen-activated protein kinase kinase kinase 3 (Homo sapiens) (UniProt Q99759).
T1 sequence (whole entry): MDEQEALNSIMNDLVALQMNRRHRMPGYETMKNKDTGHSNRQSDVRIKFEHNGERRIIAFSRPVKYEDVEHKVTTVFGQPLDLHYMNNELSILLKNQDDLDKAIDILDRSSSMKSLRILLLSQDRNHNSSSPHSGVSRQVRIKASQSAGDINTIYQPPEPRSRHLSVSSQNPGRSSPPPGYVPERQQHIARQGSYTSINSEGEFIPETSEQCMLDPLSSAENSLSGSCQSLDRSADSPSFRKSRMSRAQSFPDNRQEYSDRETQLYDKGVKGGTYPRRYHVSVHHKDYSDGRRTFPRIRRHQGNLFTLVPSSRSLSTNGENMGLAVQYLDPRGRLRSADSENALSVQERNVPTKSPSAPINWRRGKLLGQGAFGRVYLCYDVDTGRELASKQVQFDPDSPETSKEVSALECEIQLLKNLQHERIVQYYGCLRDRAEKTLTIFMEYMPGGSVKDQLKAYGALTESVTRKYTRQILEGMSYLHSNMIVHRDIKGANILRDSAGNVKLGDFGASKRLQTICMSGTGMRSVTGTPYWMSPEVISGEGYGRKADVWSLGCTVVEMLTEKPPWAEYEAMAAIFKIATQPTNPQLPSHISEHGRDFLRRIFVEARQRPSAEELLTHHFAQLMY
Briefly: Selectivity interaction (KinomeScan (DiscoverX)) EUB0000666a MAP3K3. Particulars: at 10 µM.

For experiment [3], the target named is T2, Serine/threonine-protein kinase Nek9 (Homo sapiens) (UniProt Q8TD19).
T2 sequence (whole entry): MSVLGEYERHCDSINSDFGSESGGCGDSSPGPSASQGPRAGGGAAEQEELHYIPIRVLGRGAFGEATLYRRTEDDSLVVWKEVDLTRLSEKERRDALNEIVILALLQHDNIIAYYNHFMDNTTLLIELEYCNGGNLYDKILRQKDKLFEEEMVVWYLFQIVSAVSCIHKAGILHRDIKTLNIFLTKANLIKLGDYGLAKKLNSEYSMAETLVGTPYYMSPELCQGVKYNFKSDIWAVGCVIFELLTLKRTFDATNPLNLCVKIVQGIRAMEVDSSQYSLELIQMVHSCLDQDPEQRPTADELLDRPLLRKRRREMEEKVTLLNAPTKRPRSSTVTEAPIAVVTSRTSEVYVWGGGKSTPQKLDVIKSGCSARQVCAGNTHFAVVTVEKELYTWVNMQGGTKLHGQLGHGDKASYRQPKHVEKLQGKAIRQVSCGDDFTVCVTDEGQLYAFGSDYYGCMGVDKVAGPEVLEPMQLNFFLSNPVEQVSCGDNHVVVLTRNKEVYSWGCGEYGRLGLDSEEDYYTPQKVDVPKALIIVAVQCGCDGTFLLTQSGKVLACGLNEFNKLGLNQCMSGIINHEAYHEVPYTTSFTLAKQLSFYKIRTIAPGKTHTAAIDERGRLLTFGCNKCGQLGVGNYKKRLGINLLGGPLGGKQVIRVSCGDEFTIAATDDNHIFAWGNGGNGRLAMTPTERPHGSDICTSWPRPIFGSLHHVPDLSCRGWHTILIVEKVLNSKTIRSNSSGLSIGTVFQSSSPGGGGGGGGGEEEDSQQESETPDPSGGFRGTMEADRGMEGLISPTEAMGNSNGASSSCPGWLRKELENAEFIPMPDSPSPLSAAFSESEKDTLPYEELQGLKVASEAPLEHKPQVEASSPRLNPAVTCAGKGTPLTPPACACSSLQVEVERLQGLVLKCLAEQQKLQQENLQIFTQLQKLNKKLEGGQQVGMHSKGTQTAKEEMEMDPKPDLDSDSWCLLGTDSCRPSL
Description: Selectivity interaction (KinomeScan (DiscoverX)) EUB0000045b NEK9.

Experiment [4] can be described thus: Selectivity interaction (KinomeScan (DiscoverX)) EUB0000045b CDPK1. Particulars: at 10 µM.
The target in experiment [5] is T3, Mitogen-activated protein kinase 13 (Homo sapiens) (UniProt O15264).
T3 sequence (whole entry): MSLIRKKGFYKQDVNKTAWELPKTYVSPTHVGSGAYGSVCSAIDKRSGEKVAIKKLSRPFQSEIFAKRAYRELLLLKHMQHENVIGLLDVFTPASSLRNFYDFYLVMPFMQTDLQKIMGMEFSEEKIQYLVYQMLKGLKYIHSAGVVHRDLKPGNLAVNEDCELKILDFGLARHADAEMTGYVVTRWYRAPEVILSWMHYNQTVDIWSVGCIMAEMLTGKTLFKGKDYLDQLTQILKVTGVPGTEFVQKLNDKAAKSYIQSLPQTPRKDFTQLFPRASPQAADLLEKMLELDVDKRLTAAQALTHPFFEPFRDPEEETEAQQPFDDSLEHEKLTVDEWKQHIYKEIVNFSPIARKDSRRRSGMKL
Briefly: Selectivity interaction (ProQinase) EUB0000171b MAPK13.

The target in experiment [6] is Substance-P receptor (Homo sapiens) (UniProt P25103). Description: Selectivity interaction (Panel of kinases, GPCRs, ion channels and transporters (enzymatic assay)) EUB0000223bCl TACR1.
Sequence of Substance-P receptor (Homo sapiens) (P25103 whole entry): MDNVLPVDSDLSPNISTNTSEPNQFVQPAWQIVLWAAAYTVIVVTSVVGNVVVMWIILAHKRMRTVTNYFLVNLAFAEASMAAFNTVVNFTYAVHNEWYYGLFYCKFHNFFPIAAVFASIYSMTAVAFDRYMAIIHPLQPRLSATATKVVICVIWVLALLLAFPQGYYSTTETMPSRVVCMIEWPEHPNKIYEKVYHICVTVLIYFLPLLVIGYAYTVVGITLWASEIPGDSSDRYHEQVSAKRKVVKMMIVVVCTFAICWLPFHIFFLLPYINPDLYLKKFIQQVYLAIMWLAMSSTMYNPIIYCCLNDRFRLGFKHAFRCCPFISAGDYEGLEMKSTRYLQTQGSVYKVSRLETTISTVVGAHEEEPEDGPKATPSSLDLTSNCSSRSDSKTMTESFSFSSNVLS
Experiment [7] deals with T4, Inhibitor of nuclear factor kappa-B kinase subunit alpha (Homo sapiens) (UniProt O15111).
T4 sequence (whole entry): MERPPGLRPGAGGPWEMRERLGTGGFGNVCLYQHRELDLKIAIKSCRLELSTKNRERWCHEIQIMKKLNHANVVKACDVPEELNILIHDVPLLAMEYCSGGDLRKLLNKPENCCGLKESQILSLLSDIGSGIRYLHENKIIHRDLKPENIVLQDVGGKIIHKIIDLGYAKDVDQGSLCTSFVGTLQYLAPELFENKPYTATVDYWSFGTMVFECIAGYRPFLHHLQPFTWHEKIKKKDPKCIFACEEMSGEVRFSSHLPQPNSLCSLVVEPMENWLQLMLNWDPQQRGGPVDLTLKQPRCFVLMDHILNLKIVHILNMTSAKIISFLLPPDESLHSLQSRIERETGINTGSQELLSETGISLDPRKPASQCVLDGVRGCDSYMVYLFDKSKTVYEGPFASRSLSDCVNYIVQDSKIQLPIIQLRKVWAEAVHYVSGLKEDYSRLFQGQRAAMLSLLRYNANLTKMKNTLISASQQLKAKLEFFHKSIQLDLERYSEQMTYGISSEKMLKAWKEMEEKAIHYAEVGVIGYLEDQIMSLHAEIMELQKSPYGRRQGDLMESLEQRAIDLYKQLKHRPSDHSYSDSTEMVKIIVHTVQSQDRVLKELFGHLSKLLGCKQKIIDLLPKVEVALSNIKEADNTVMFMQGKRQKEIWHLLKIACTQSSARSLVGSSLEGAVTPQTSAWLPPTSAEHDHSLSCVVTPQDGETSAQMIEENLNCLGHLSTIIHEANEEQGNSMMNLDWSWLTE
Description: Selectivity interaction (KinomeScan (DiscoverX)) EUB0000092b CHUK. Particulars: at 10 µM.

Sequence of MAP kinase-interacting serine/threonine-protein kinase 2 (Q9HBH9 whole entry, looked up): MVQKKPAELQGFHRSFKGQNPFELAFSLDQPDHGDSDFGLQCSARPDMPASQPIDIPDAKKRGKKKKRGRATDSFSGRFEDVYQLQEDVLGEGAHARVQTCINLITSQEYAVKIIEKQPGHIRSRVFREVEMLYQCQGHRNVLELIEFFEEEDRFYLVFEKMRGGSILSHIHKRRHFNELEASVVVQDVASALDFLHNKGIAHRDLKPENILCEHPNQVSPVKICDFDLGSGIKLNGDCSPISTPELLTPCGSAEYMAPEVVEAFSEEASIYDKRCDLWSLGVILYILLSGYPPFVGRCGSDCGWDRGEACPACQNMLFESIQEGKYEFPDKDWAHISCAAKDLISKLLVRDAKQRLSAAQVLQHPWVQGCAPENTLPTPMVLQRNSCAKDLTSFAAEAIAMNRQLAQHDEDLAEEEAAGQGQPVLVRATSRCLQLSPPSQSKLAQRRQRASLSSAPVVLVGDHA

Take `COCC(=O)NC/C=C/c1ccc2ncnc(Nc3ccc(Oc4ccc(C)nc4)c(C)c3)c2c1` [CP-724714]: the % of control in experiment [1] is 1.4%.

Turning to `O=C(NOC[C@H](O)CO)c1ccc(F)c(F)c1Nc1ccc(I)cc1F`, the % of control in experiment [2] turned out to be 98%.

For the compound `C=CC(=O)Nc1cc(-n2c(=O)ccc3cnc4ccc(-c5ccc(NS(C)(=O)=O)cc5)cc4c32)ccc1C`, the % of control in experiment [3] (at 1 µM) came out at 100%; in experiment [3] (at 10 µM) it was 65%; in experiment [4], 100%.

`C=CC(=O)Nc1cccc(C(=O)Nc2ccc(Nc3cc(-c4[nH]c(SC)nc4C)ccn3)cc2)c1`: the % of control was found to be 91% in experiment [5] (at 1 µM) and 80% in experiment [5] (at 5 µM).

For the compound `COc1cc(C(=O)N2CC[C@@H](O)[C@@H](N)C2)cc2nc(-c3cc4ccccc4n3CC3CC3)n(C)c12`, the pXC50 in experiment [6] was less than 4.4 M.

The compound `CCC(=O)N1CCN(c2ccc(-n3c(=O)ccc4cnc5ccc(-c6cnc7ccccc7c6)cc5c43)cc2C(F)(F)F)CC1` showed a % of control in experiment [7] of 41%.
